Test [1] has as its target human DR5 (death receptor 5) (human) (UniProt O14763). As to the kind of experiment: cell-based or functional assay.
Test [2] has as its system Jurkat cells. As to the kind of experiment: Apoptosis-inducing activity of hydrophobic molecule-modified antibodies against Jurkat cells (cell viability from ATP level; method of Test Example 13). It is filed as cell-based, human. The conditions noted are these: 72 hr.
Test [3] has as its system BxPC-3 cells. The experiment in a line: Apoptosis-inducing activity of hydrophobic molecule-modified antibodies against BxPC-3 cells (cell viability from ATP level). The class given is cell-based, human.
For test [4], the system named is human colon cancer strain COLO 205. The experiment in a line: Antitumor activity against human colon cancer strain COLO 205-transplanted nude mice (tumor volume, rate of tumor growth). The class given is in vivo, nude mice BALB/cA Jcl-nu. The conditions noted are these: 0.33 mg/ml, 0.1 ml per 10 g body weight i.v., Days 8, 11, 13, 15, 18, 20, 22, 25, 27. How it is done: The in-vivo antitumor activity of the immunoliposome prepared in Example 5 was studied. 2×10^6 cells of a human colon cancer strain COLO 205 (purchased from American Type Culture Collection) which was confirmed by quarantine to have no detectable mouse pathogenic microorganisms were hypodermically transplanted to the axillary region of nude mice BALB/cA Jcl-nu (CLEA Japan, Inc.). The immunoliposome of Example 5 was diluted, immediately before its administration, with saline (Otsuka Pharmaceutical Co., Ltd.) to 1 and 0.33 mg/ml in terms of antibody concentrations. Seven days after the transplantation, the administration of the immunoliposome of Example 5 to COLO 205 cancer-bearing mice in which the tumor successfully grafted was started. […]
The major axis and minor axis of the transplanted tumor were measured two to three times a week using an electronic vernier caliper (CD-15C; Mitutoyo Corp.). The tumor volume was determined according to the following calculation formula:
Tumor volume (mm^3)=½×minor axis^2 (mm)×major axis (mm).
Moreover, the rate of tumor growth (mm^3/day) of each individual was calculated, and the statistically significant difference was tested by a Dunnett test using the value. In this context, a P value less than 0.05 was regarded as being a significant difference among groups. […]

Test [5] deals with human malignant melanoma cell strain A2058 cells. As to the kind of experiment: Apoptosis-inducing activity of immunoliposomes against A2058 cells (cell viability from ATP level). The class given is cell-based. The conditions noted are these: antibody not conjugated to an immunoliposome. As to the method:
(§1) Jurkat cells were counted by a trypan blue staining method, and the concentration was then adjusted to 1×10^5 cells/ml with a DMEM medium (manufactured by Invitrogen Corp.; hereinafter, referred to as a DMEM medium) containing 10% fetal calf serum (manufactured by Hyclone Laboratories, Inc.). […] To this microplate, the cell suspension was inoculated in an amount of 50 μl (5×10^3 cells)/well. The plate was cultured at 37° C. for 72 hr in the presence of 5% carbon dioxide, and the ATP level of each well was measured. […] Then, the supernatant was transferred in an amount of 100 μl/well to a 96-well white microplate (manufactured by Corning Inc.), and luminescence from each well was measured using a luminometer (manufactured by Molecular Devices Corp.). […] The cell viability of each well was calculated according to the following equation:
(§2) Cell viability (%)=(Luminescence intensity of test wells−Average luminescence intensity of background wells)/(Average luminescence intensity of negative control wells−Average luminescence intensity of background wells)×100.
The apoptosis-inducing activities against human malignant melanoma cell strain A2058 cells were measured according to the method described in Test Example 1.

Test [6] has as its system human malignant melanoma cell strain A375 cells. The experiment in a line: Apoptosis-inducing activity of immunoliposomes against A375 cells (cell viability from ATP level). The class given is cell-based. The conditions noted are these: antibody not conjugated to an immunoliposome. How it is done: as §1, §2
The apoptosis-inducing activities against human malignant melanoma cell strain A375 cells were measured according to the method described in Test Example 1.

Test [7] concerns the target T1, human Fas (human, UniProt P25445 26-335).
T1 sequence (looked up): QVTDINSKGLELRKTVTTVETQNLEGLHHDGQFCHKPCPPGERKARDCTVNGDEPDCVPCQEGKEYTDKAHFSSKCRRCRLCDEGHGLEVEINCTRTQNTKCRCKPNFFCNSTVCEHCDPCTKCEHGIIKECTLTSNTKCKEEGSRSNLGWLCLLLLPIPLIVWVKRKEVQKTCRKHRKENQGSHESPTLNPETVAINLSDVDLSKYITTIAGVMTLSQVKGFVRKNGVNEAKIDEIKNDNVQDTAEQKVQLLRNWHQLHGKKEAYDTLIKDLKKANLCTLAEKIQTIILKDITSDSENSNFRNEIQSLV
As to the kind of experiment: cell-based or functional assay.

Take “DSPE-PEG2000-modified MAB631 Fullbody of Example 49 (antibody)”: in test [1], the EC50 (concentration exhibiting 50% cell viability), Jurkat cells, Test Example 20 was determined as 0.025 ng/mL and the cell viability (Jurkat cells) was < 10%. Further, the EC50 relative to Ab, Jurkat cells, Test Example 20 in test [1] (scale: fold) was 58.4.
As for “Example 32: DSPE-PEG2000-modified hTRA-8 Fab′ (Cys), reaction ratio 1:4”, in test [2], the “apoptosis-inducing activity compared with that of secondary antibody-cross-linked hTRA-8” value is listed as “stronger”.
Still for that read-out and setting: the value for “Example 33: DSPE-PEG2000-modified hTRA-8 Fullbody (Lys), reaction ratio 1:1” was “stronger”; that for “Example 34: DSPE-PEG2000-modified hTRA-8 Fullbody (Lys), reaction ratio 1:4” was “stronger”; that for “Example 35: DSPE-PEG2000-modified hTRA-8 Fullbody (Lys), reaction ratio 1:12” was “stronger”.
For the molecule “Example 36: DSPE-PEG2000-modified hTRA-8 Fullbody (Cys), reaction ratio 1:10”, the “apoptosis-inducing activity compared with that of secondary antibody-cross-linked hTRA-8” value in test [2] is “stronger”.
Turning to “Example 37: DSPE-PEG2000-modified hTRA-8 Fab′ (Cys), reaction ratio 1:1”, the “apoptosis-inducing activity compared with that of secondary antibody-cross-linked hTRA-8” value in test [2] is reported as “equivalent to or stronger”; in test [3], “stronger”.
Consider “Example 38: DSPE-PEG10000-modified hTRA-8 Fab′ (Cys)”, for which the “apoptosis-inducing activity compared with that of secondary antibody-cross-linked hTRA-8” value in test [2] is given as “equivalent to or stronger”.
On the same count and under the same terms, the value for “Example 39: DPPE-PEG2000-modified hTRA-8 Fab′ (Cys)” was “equivalent to or stronger”.
Same read-out and setting: for “Example 40: Chol-PEG5000-modified hTRA-8 Fab′ (Cys)” the value was “equivalent to or stronger”; for “Example 41: DSPE-PEG10000-modified hTRA-8 Fullbody (Lys)”, “stronger”.
On the same count and under the same terms, for “Example 42: DPPE-PEG2000-modified hTRA-8 Fullbody (Lys)” the value was “stronger”; for “Example 43: Chol-PEG5000-modified hTRA-8 Fullbody (Lys)”, “stronger”.
Turning to “Example 45: DSPE-PEG3400-modified hTRA-8 Fullbody (Lys)”, the “apoptosis-inducing activity compared with that of secondary antibody-cross-linked hTRA-8” value in test [2] is “stronger”.
As to “Example 46: DSPE-PEG5000-modified hTRA-8 Fullbody (Lys), reaction ratio 1:2”, the “apoptosis-inducing activity compared with that of secondary antibody-cross-linked hTRA-8” value in test [2] and in test [3] was “stronger” each time.
As for “Example 47: DSPE-PEG2000-modified hTRA-8 Fullbody (Lys), reaction ratio 1:1, large scale”, the “antitumor activity (rate of tumor growth, Dunnett test)” value in test [4] is reported as “antitumor activity with a statistically significant difference”.
“Example 48: DSPE-PEG2000-modified hTRA-8 F(ab′)2 (Lys)”: the “apoptosis-inducing activity compared with that of secondary antibody-cross-linked hTRA-8” value in test [3] is reported as “stronger”.
Turning to “Example 52: PEG2000-modified hTRA-8 Fullbody (Lys), hydrophobic molecule-free, water-soluble linker-modified antibody”, the “apoptosis-inducing activity (in words)” value in test [3] (1000, 100, 10, or 1 ng/ml) is on record as “weak”.
Regarding “Example 53: PEG5000-modified hTRA-8 Fullbody (Lys), hydrophobic molecule-free, water-soluble linker-modified antibody”, in test [3] (1000, 100, 10, or 1 ng/ml), the “apoptosis-inducing activity (in words)” value was “weak”.
Turning to “Example 54: PEG2000-modified hTRA-8 Fab′ (Cys), hydrophobic molecule-free, water-soluble linker-modified antibody”, the “apoptosis-inducing activity (in words)” value in test [3] (1000, 100, 10, or 1 ng/ml) is “weak”.
Same read-out and setting: for “hTRA-8 F(ab′)2 fragment: F(ab′)2 fragment obtained by pepsin digestion of hTRA-8” the value was “hardly exhibited an apoptosis-inducing activity”; for “hTRA-8 Fab′ fragment: Fab′ obtained by reducing hTRA-8 F(ab′)2 with DTT”, “hardly exhibited an apoptosis-inducing activity”.
Take “hTRA-8: antibody obtained by humanizing mouse anti-human DR5 antibody TRA-8; heavy chain SEQ ID NO: 1, light chain SEQ ID NO: 2”: the “apoptosis-inducing activity (in words)” value in test [5], in test [6] and in test [3] (uncross-linked with secondary antibody) was “weak” throughout.

B1: DSPE-PEG2000-modified hHFE7A Fullbody of Example 50 (antibody, human IgG1, kappa, V domains shown)
VH: QVQLVQSGAEVKKPGASVKVSCKASGYTFTSYWMQWVKQAPGQGLEWMGEIDPSDSYTNYNQKFKGKATLTVDTSTSTAYMELSSLRSEDTAVYYCARNRDYSNNWYFDVWGEGTLVTVSS
VL: EIVLTQSPGTLSLSPGERATLSCKASQSVDYDGDSYMNWYQQKPGQAPRLLIYAASNLESGIPDRFSGSGSGTDFTLTISRLEPEDFAVYYCQQSNEDPRTFGQGTKLEIKR
modifications: DSPE-PEG2000 on thiolated Lys (residue and chain not specified)
In the case of B1, in test [7], the “EC50 (concentration exhibiting 50% cell viability), Jurkat cells, Test Example 21” value was determined as 6.94 ng/mL and the “EC50 relative to Ab, Jurkat cells, Test Example 21” value was > 144 fold (control antibody EC50 / modified antibody EC50).

B2: anti-human Fas antibody hHFE7A (humanized HFE7A), Fullbody (antibody, human IgG1, kappa, V domains shown)
VH: B1 VH
VL: B1 VL
Consider B2, for which the “Cross-linked Antibody EC50, Jurkat cells, Test Example 21” value in test [7] was > 1000 ng/mL.

For the origin of these results see patent US20110269942A1, “ANTIBODIES MODIFIED WITH HYDROPHOBIC MOLECULE” (DAIICHI SANKYO COMPANY, LIMITED, priority 2007, published 2011).
